Test results from ChEMBL document CHEMBL1201862, “PubChem BioAssay data set” (2004).
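Following 48 hours of exposure in 96-well plates, responses at five concentrations were used to interpolate endpoints linearly. At the GI50, growth is halved.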 The source made the active and inactive calls. Cut-off read from the data, not from the text of the source: active = GI50 up to about 1.1 µM and inactive = higher.

Assays:
Assay in all cases: growth of human tumour cells (NCI), 48 h
NCI-H522 = tested on: NCI-H522
SW-620 = tested on: SW-620
OVCAR-4 = tested on: OVCAR-4
CCRF-CEM = tested on: CCRF-CEM
SN12C = tested on: SN12C
UO-31 = tested on: UO-31
CAKI-1 = tested on: CAKI-1
HT-29 = tested on: HT-29
HCC 2998 = tested on: HCC 2998
ACHN = tested on: ACHN
HL-60 = tested on: HL-60
SK-MEL-2 = tested on: SK-MEL-2
SNB-19 = tested on: SNB-19
786-0 = tested on: 786-0
SK-OV-3 = tested on: SK-OV-3
HCT-15 = tested on: HCT-15
OVCAR-3 = tested on: OVCAR-3
NCI-H226 = tested on: NCI-H226
OVCAR-8 = tested on: OVCAR-8
RPMI-8226 = tested on: RPMI-8226

Row | Compound | GI50 (NCI-H522) | GI50 (SW-620) | GI50 (OVCAR-4) | GI50 (CCRF-CEM) | GI50 (SN12C) | GI50 (UO-31) | GI50 (CAKI-1) | GI50 (HT-29) | GI50 (HCC 2998) | GI50 (ACHN) | GI50 (HL-60) | GI50 (SK-MEL-2) | GI50 (SNB-19) | GI50 (786-0) | GI50 (SK-OV-3) | GI50 (HCT-15) | GI50 (OVCAR-3) | GI50 (NCI-H226) | GI50 (OVCAR-8) | GI50 (RPMI-8226)
1 | Cc1ccc(C)c(NC(=O)CC2SC(Nc3ccccc3Cl)=NC2=O)c1 (configuration not stated) | 27 µM (inactive) | > 100 µM (inactive) | 65.9 µM (inactive) | 22.1 µM (inactive) | > 100 µM (inactive) | 75.9 µM (inactive) | 65.8 µM (inactive) | > 100 µM (inactive) | > 100 µM (inactive) | 71.1 µM (inactive) | 32.3 µM (inactive) | > 100 µM (inactive) | > 100 µM (inactive) | > 100 µM (inactive) | > 100 µM (inactive) | > 100 µM | > 100 µM (inactive) | > 100 µM (inactive) | > 100 µM (inactive) | 
2 | CC1(C)CC(=O)C(CC2C(=O)CCCC2=O)C(=O)C1 | > 100 µM (inactive) | > 100 µM (inactive) | > 100 µM (inactive) | > 100 µM (inactive) | > 100 µM (inactive) | > 100 µM (inactive) | > 100 µM (inactive) | > 100 µM (inactive) | > 100 µM (inactive) | > 100 µM (inactive) | > 100 µM (inactive) | > 100 µM (inactive) | > 100 µM (inactive) | > 100 µM (inactive) | > 100 µM (inactive) | > 100 µM | > 100 µM (inactive) | > 100 µM (inactive) | > 100 µM (inactive) | 
3 | COc1cc(CC2c3cc(OC)c(OC)cc3CCN2C)c(Oc2cc3c(cc2OC)-c2c(O)c(OC)cc4c2C(C3)N(C)CC4)cc1OC (configuration not stated) | 17.8 µM (inactive) | 39.5 µM (inactive) | 28.3 µM (inactive) | 18.8 µM (inactive) | 22.1 µM (inactive) | 18.5 µM (inactive) | 23.7 µM (inactive) | 6.82 µM (inactive) | 13.1 µM (inactive) | 22.9 µM (inactive) | 4.01 µM (inactive) | 22.8 µM (inactive) | 25.3 µM (inactive) | 23.1 µM (inactive) | 41.1 µM (inactive) | 14 µM | 20.4 µM (inactive) | 26.7 µM (inactive) | 20.8 µM (inactive) | 
4 | COc1cccc(-c2cc(=O)c3cc(C)c(C)c(C(=O)O)c3o2)c1 | > 100 µM (inactive) | > 100 µM (inactive) | > 100 µM (inactive) | > 100 µM (inactive) | > 100 µM (inactive) | > 100 µM (inactive) |  | > 100 µM (inactive) | > 100 µM (inactive) | > 100 µM (inactive) | > 100 µM (inactive) | > 100 µM (inactive) | > 100 µM (inactive) | > 100 µM (inactive) | > 100 µM (inactive) | > 100 µM | > 100 µM (inactive) |  | > 100 µM (inactive) | > 100 µM (inactive)
5 | CCc1cc2c(oc3c4ccccc4ccc23)c(=O)[nH]1 | > 10 µM (inactive) | > 10 µM (inactive) | > 10 µM (inactive) | > 10 µM (inactive) |  | > 10 µM (inactive) |  | > 10 µM (inactive) |  | > 10 µM (inactive) | > 10 µM (inactive) |  | > 10 µM (inactive) | > 10 µM (inactive) | > 10 µM (inactive) |  | > 10 µM (inactive) | > 10 µM (inactive) | > 10 µM (inactive) | 
6 | C1CNOCCCONCCCNOCCCONC1 | 67.6 µM (inactive) | > 100 µM (inactive) | 70.3 µM (inactive) | > 100 µM (inactive) | 77.4 µM (inactive) | > 100 µM (inactive) | > 100 µM (inactive) | > 100 µM (inactive) |  | > 100 µM (inactive) | 51.8 µM (inactive) | 25.1 µM (inactive) | 57.3 µM (inactive) | > 100 µM (inactive) | 37.1 µM (inactive) | > 100 µM | 62.2 µM (inactive) | > 100 µM (inactive) | 60.7 µM (inactive) | 
7 | Cc1c(O)c(OC2OC(CO)C(O)C(O)C2O)cc2c1C=C[C@@H]1[C@@]2(C)C(=O)C[C@]2(C)[C@@H]([C@@](C)(O)C(=O)CCC(C)(C)O)[C@H](O)C[C@@]12C (some centres not stated) | 24.6 µM (inactive) | 29 µM (inactive) | 25.4 µM (inactive) | 37.3 µM (inactive) | 19.8 µM (inactive) | 20.2 µM (inactive) | 20 µM (inactive) | 28.8 µM (inactive) | 20.5 µM (inactive) | 19.6 µM (inactive) | 41.5 µM (inactive) | 26.2 µM (inactive) | 23.2 µM (inactive) | 25.2 µM (inactive) | 15.7 µM (inactive) | 25.9 µM | 22.6 µM (inactive) | 23.3 µM (inactive) | 33.3 µM (inactive) | 
8 | CN(C)c1ccc(/C=C2\N=C(NNc3ccccc3)NC2=O)cc1 | 18.8 µM (inactive) | 26.8 µM (inactive) | 24.2 µM (inactive) | < 0.01 µM (active) | 17.7 µM (inactive) | 31 µM (inactive) | 26.2 µM (inactive) | 16.9 µM (inactive) | 14 µM (inactive) | 20.2 µM (inactive) |  | 18.7 µM (inactive) | 35.6 µM (inactive) | 17.9 µM (inactive) | 27.5 µM (inactive) | 22 µM | 16 µM (inactive) |  | 30.9 µM (inactive) | 16 µM (inactive)
9 | O=C(N/N=C/c1ccccc1O)c1cccc([N+](=O)[O-])c1 | 32.7 µM (inactive) | 4.54 µM (inactive) | 50.5 µM (inactive) | 3.03 µM (inactive) | 21.1 µM (inactive) | 7.82 µM (inactive) |  | 5.93 µM (inactive) | 30.5 µM (inactive) | 8.41 µM (inactive) | 3.01 µM (inactive) | 21.8 µM (inactive) | > 58.9 µM (inactive) | 6.47 µM (inactive) | 15 µM (inactive) | 6.59 µM | 1.71 µM (inactive) |  | 6.95 µM (inactive) | 8.04 µM (inactive)
10 | COc1ccccc1N1C(=O)/C(=C\c2cccc(Oc3ccccc3)c2)S(=O)(=O)C1c1ccccc1 (configuration not stated) | 22.5 µM (inactive) | 49.3 µM (inactive) | 9.79 µM (inactive) | 33.9 µM (inactive) | > 100 µM (inactive) | 46.8 µM (inactive) | > 100 µM (inactive) |  | > 100 µM (inactive) | > 100 µM (inactive) |  | 21.4 µM (inactive) | 50 µM (inactive) | 49.4 µM (inactive) | > 100 µM (inactive) | 32.4 µM | 38.7 µM (inactive) | > 100 µM (inactive) |  | 
11 | CN1CNc2nc(N)n(C)c(=O)c2C1 | > 10 µM (inactive) |  | > 10 µM (inactive) | > 10 µM (inactive) | > 10 µM (inactive) | > 10 µM (inactive) |  | > 10 µM (inactive) | > 10 µM (inactive) | > 10 µM (inactive) | > 10 µM (inactive) | > 10 µM (inactive) | > 10 µM (inactive) | > 10 µM (inactive) | > 10 µM (inactive) | > 10 µM | > 10 µM (inactive) | > 10 µM (inactive) | > 10 µM (inactive) | 
12 | CSc1nc(NC2OCC(OC(C)=O)C(OC(C)=O)C2OC(C)=O)c(/N=C(\C)C(C)=O)c(=O)n1C (configuration not stated) |  | > 100 µM (inactive) | > 100 µM (inactive) | > 100 µM (inactive) | > 100 µM (inactive) | > 100 µM (inactive) | > 100 µM (inactive) | > 100 µM (inactive) | > 100 µM (inactive) | > 100 µM (inactive) | > 100 µM (inactive) | > 100 µM (inactive) | > 100 µM (inactive) | > 100 µM (inactive) | > 100 µM (inactive) | > 100 µM | > 100 µM (inactive) | > 100 µM (inactive) | > 100 µM (inactive) | > 100 µM (inactive)
13 | COC(=O)C12CC3CC(C1)CC(C(=O)OC)(C3)C2 | > 100 µM (inactive) | > 100 µM (inactive) | > 100 µM (inactive) | > 100 µM (inactive) | > 100 µM (inactive) | > 100 µM (inactive) | > 100 µM (inactive) | > 100 µM (inactive) | > 100 µM (inactive) | > 100 µM (inactive) | 55.8 µM (inactive) |  | > 100 µM (inactive) | > 100 µM (inactive) | > 100 µM (inactive) | > 100 µM | > 100 µM (inactive) |  | > 100 µM (inactive) | > 100 µM (inactive)
14 | O=C1OC(c2ccccc2)=N/C1=C\c1cc(Cl)ccc1Cl | > 100 µM (inactive) | 34.9 µM (inactive) | > 100 µM (inactive) | 23.9 µM (inactive) | 80.2 µM (inactive) | > 100 µM (inactive) |  | > 100 µM (inactive) | > 100 µM (inactive) | > 100 µM (inactive) | 6.64 µM (inactive) | > 100 µM (inactive) | > 100 µM (inactive) | 62.2 µM (inactive) |  | 16.4 µM |  |  | > 10 µM (inactive) | 44.8 µM (inactive)
15 | CSc1ccc2c(cc1=O)C(NC(=O)c1ccc(C#N)cc1)CCc1cc(O)c(O)c(O)c1-2 (configuration not stated) | 15.7 µM (inactive) | 19.5 µM (inactive) | 12.1 µM (inactive) | 9.66 µM (inactive) | 19.8 µM (inactive) | 75.9 µM (inactive) |  | 29 µM (inactive) | 21.8 µM (inactive) | > 100 µM (inactive) | 20.1 µM (inactive) |  | 41.9 µM (inactive) | 37.2 µM (inactive) | 27.4 µM (inactive) | 19 µM | 36.6 µM (inactive) | 26.2 µM (inactive) | 30.5 µM (inactive) | 
16 | COc1ccc(-c2cc(=O)c3c(O)c(OC)c(O)c(OC)c3o2)cc1OC | 12 µM (inactive) | > 100 µM (inactive) | > 100 µM (inactive) | 33.6 µM (inactive) | 43.4 µM (inactive) | 21.5 µM (inactive) |  | > 100 µM (inactive) | > 100 µM (inactive) | 33 µM (inactive) | 41.3 µM (inactive) |  | > 100 µM (inactive) | > 100 µM (inactive) | 80 µM (inactive) | 63.7 µM |  | 22.2 µM (inactive) | > 100 µM (inactive) | 46 µM (inactive)
